Literature values as cited in publication PMC6222927, “Aminobenzosuberone Scaffold as a Modular Chemical Tool for the Inhibition of Therapeutically Relevant M1 Aminopeptidases” (Molecules : A Journal of Synthetic Chemistry and Natural …, 2018).
Like-named read-outs stand apart in the source and are kept apart here.

Experiments:
[1] = biological target: P. falciparum (PfAM1) M1 aminopeptidase; conditions: cited from earlier work
[2] = biological target: mammalian aminopeptidase N (mAPN); conditions: cited from earlier work
[3] = biological target: P. falciparum M17 aminopeptidase (PfAM17); conditions: ref 45; cited from earlier work
[4] = biological target: human puromycine sensitive aminopeptidase (HsPSA); conditions: cited from earlier work
[5] = system: E. coli (EcPepN) M1 aminopeptidase; conditions: ref 49; cited from earlier work
[6] = biological target: human arginyl aminopeptidase B (HsAPB); conditions: ref 38; cited from earlier work
[7] = biological target: human aminopeptidase A (HsAPA); conditions: cited from earlier work
[8] = biological target: mammalian cytosolic leucine aminopeptidase (mLAPc); conditions: cited from earlier work
[9] = biological target: human leukotriene A4 hydrolase (HsLTA4H); conditions: ref 37; cited from earlier work

For `NC(CCc1ccccc1)P(=O)(O)CC(Cc1ccccc1)C(=O)O` (stereo not drawn) [compound 2], the Ki ([1]; ref 47) is listed as 0.079 µM, the Ki ([2]; ref 46) is listed as 0.002 µM and the Ki [3] is listed as 0.013 µM.

In the case of `CCOC(=O)C1=C(Nc2ccccc2)CC(c2ccccn2)N(c2ccccc2)C1c1cccnc1` (stereo not drawn) [compound 4], the Ki ([1]; ref 49) is listed as > 100 µM, the Ki ([2]; ref 49) is listed as > 100 µM and the IC50 ([4]; ref 49) is listed as 1.79 µM. The Ki [5] was > 100 µM.

In the case of `NC1Cc2ccc3ccccc3c2CC1=O` (stereo not drawn) [compound 5], the Ki [6] is given as > 1000 µM, the Ki ([7]; NI = no inhibition) is given as > 1000 µM and the Ki ([8]; ref 38) is given as 3 µM.

In the case of `N[C@H](CS)CCC(=O)O` [compound 6], the Ki ([7]; ref 50) is given as 0.14 µM.

In the case of `CC(C)C[C@@H](C(=O)N[C@H](C(=O)O)c1ccccc1)[C@H](O)C(=O)NO` [compound 8], the IC50 ([4]; ref 37) is listed as 0.85 µM, the IC50 ([8]; ref 37) is listed as 0.03 µM and the IC50 [9] is listed as 0.008 µM.

For `O=C(CCc1ccc(F)cc1)/C(=C/c1ccccc1)C(=O)NO` [compound 10], the IC50 ([1]; ref 35, 53) is listed as 0.006 µM and the IC50 ([2]; ref 35, 53) is listed as 1.37 µM.

In the case of `CCc1cccc(CC)c1N1C(=O)c2cccc3cccc(c23)C1=O` [compound 12], the Ki ([2]; ref 55) is given as > 100 µM and the IC50 ([4]; ref 55) is given as 0.8 µM.
